Key:
[1] = molecular target: Mitogen-activated protein kinase 6 (Homo sapiens) (UniProt Q16659); conditions: Compound concentration 1000.0 nM
[2] = molecular target: Ribosomal protein S6 kinase alpha-1 (Homo sapiens) (UniProt Q15418); conditions: Compound concentration 1000.0 nM
[3] = molecular target: Cyclin-dependent kinase 2 homolog (Plasmodium falciparum (isolate 3D7)) (UniProt P61075); conditions: Compound concentration 1000.0 nM
[4] = molecular target: Cyclin-dependent kinase 9 (Homo sapiens) (UniProt P50750); conditions: Compound concentration 1000.0 nM
Sequence of Cyclin-dependent kinase 9 (Homo sapiens) (P50750 whole entry): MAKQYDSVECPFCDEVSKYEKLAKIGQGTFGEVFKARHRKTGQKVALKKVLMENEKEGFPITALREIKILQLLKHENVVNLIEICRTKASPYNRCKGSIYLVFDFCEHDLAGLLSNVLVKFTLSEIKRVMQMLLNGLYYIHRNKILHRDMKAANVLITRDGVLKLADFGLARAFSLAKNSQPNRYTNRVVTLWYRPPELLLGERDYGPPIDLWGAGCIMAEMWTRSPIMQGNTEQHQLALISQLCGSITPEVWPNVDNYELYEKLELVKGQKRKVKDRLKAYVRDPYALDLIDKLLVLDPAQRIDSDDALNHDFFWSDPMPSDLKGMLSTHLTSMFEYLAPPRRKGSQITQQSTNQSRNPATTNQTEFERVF

[5] = molecular target: Serine/threonine-protein kinase SIK3 (Homo sapiens) (UniProt Q9Y2K2); conditions: Compound concentration 1000.0 nM
[6] = molecular target: Mitogen-activated protein kinase kinase kinase kinase 4 (Homo sapiens) (UniProt O95819); conditions: Compound concentration 1000.0 nM
[7] = molecular target: Serine/threonine-protein kinase Nek1 (Homo sapiens) (UniProt Q96PY6); conditions: Compound concentration 1000.0 nM
Sequence of Serine/threonine-protein kinase Nek1 (Homo sapiens) (Q96PY6 whole entry): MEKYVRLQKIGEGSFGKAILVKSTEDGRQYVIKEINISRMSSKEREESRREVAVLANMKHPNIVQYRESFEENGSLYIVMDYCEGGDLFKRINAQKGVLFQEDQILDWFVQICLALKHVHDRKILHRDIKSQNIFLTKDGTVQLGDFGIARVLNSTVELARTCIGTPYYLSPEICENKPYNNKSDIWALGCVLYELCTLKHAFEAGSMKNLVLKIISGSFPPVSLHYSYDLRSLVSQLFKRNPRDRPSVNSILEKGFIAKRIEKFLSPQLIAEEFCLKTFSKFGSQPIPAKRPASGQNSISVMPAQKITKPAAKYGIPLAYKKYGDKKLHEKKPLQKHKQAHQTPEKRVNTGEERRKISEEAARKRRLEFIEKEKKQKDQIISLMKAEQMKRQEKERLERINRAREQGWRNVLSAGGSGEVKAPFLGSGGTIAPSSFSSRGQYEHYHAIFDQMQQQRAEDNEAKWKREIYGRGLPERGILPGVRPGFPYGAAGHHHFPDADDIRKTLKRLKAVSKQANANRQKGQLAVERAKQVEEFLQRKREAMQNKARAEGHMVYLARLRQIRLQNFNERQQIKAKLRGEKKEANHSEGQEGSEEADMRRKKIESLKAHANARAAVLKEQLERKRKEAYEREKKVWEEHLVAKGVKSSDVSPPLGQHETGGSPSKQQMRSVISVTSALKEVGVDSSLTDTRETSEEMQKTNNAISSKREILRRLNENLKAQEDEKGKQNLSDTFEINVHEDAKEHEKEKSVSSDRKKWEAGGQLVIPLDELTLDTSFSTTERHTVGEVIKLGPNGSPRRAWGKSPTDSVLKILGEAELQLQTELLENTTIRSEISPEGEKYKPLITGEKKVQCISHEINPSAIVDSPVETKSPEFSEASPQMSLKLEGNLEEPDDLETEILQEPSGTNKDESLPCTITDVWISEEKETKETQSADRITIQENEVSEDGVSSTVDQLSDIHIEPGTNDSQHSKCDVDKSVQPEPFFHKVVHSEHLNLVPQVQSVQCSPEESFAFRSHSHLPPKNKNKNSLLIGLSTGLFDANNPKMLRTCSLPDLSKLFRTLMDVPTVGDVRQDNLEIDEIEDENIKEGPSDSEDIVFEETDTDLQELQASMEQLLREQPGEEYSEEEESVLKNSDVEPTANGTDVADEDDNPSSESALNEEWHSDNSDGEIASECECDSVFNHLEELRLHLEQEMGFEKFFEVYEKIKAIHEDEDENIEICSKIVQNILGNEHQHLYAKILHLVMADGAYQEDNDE

[8] = test system: Tyrosine-protein kinase ABL1 (Homo sapiens), P00519 [T315I]; conditions: Compound concentration 1000.0 nM
[9] = molecular target: Serine/threonine-protein kinase PLK3 (Homo sapiens) (UniProt Q9H4B4); conditions: Compound concentration 1000.0 nM
[10] = molecular target: Myosin light chain kinase, smooth muscle (Homo sapiens) (UniProt Q15746); conditions: Compound concentration 1000.0 nM
[11] = molecular target: RAC-beta serine/threonine-protein kinase (Homo sapiens) (UniProt P31751); conditions: Compound concentration 1000.0 nM
[12] = molecular target: High affinity nerve growth factor receptor (Homo sapiens) (UniProt P04629); conditions: Compound concentration 1000.0 nM
[13] = molecular target: Cyclin-dependent kinase 5 (Homo sapiens) (UniProt Q00535); conditions: Compound concentration 1000.0 nM
[14] = molecular target: Wee1-like protein kinase 2 (Homo sapiens) (UniProt P0C1S8); conditions: Compound concentration 1000.0 nM
[15] = molecular target: Ribosomal protein S6 kinase alpha-3 (Homo sapiens) (UniProt P51812); conditions: Compound concentration 1000.0 nM
[16] = molecular target: Serine/threonine-protein kinase 38 (Homo sapiens) (UniProt Q15208); conditions: Compound concentration 1000.0 nM
[17] = molecular target: Proto-oncogene tyrosine-protein kinase receptor Ret (Homo sapiens) (UniProt P07949); conditions: Compound concentration 1000.0 nM
[18] = molecular target: Casein kinase I isoform epsilon (Homo sapiens) (UniProt P49674); conditions: Compound concentration 1000.0 nM
[19] = test system: Mast/stem cell growth factor receptor Kit (Homo sapiens), P10721 [D816V]; conditions: Compound concentration 1000.0 nM
[20] = molecular target: Myosin light chain kinase family member 4 (Homo sapiens) (UniProt Q86YV6); conditions: Compound concentration 1000.0 nM
Sequence of Myosin light chain kinase family member 4 (Homo sapiens) (Q86YV6 whole entry): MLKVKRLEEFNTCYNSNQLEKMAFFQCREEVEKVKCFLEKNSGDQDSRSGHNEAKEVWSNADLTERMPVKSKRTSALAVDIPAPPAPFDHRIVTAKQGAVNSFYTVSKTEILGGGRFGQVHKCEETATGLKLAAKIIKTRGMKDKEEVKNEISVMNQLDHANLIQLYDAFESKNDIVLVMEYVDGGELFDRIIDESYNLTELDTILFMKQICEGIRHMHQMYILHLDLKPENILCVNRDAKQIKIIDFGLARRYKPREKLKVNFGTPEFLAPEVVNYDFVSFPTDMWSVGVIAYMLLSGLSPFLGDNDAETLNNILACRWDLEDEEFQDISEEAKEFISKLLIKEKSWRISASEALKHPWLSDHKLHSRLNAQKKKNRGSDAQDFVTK

[21] = molecular target: Epidermal growth factor receptor (Homo sapiens) (UniProt P00533); conditions: Compound concentration 1000.0 nM
[22] = molecular target: Vascular endothelial growth factor receptor 2 (Homo sapiens) (UniProt P35968); conditions: Compound concentration 1000.0 nM
[23] = molecular target: Serine/threonine-protein kinase OSR1 (Homo sapiens) (UniProt O95747); conditions: Compound concentration 1000.0 nM
[24] = molecular target: Eukaryotic translation initiation factor 2-alpha kinase 1 (Homo sapiens) (UniProt Q9BQI3); conditions: Compound concentration 1000.0 nM
[25] = molecular target: Dual specificity mitogen-activated protein kinase kinase 6 (Homo sapiens) (UniProt P52564); conditions: Compound concentration 1000.0 nM
[26] = test system: Mast/stem cell growth factor receptor Kit (Homo sapiens), P10721 [V559D,V654A]; conditions: Compound concentration 1000.0 nM
[27] = test system: Hepatocyte growth factor receptor (Homo sapiens), P08581 [M1250T]; conditions: Compound concentration 1000.0 nM
[28] = molecular target: AP2-associated protein kinase 1 (Homo sapiens) (UniProt Q2M2I8); conditions: Compound concentration 1000.0 nM
[29] = molecular target: GABA-A receptor; anion channel (Rattus norvegicus) (UniProt O09028+P15431+P18506+P18508+P19969+P20236+P23574+P23576+P28471+P28473+P30191+P62813+P63079+P63138+Q91ZM7+Q9ES14); conditions: Compound concentration 10.0 uM
[30] = molecular target: Cyclin-dependent kinase 17 (Homo sapiens) (UniProt Q00537); conditions: Compound concentration 1000.0 nM
Sequence of Cyclin-dependent kinase 17 (Homo sapiens) (Q00537 whole entry, looked up): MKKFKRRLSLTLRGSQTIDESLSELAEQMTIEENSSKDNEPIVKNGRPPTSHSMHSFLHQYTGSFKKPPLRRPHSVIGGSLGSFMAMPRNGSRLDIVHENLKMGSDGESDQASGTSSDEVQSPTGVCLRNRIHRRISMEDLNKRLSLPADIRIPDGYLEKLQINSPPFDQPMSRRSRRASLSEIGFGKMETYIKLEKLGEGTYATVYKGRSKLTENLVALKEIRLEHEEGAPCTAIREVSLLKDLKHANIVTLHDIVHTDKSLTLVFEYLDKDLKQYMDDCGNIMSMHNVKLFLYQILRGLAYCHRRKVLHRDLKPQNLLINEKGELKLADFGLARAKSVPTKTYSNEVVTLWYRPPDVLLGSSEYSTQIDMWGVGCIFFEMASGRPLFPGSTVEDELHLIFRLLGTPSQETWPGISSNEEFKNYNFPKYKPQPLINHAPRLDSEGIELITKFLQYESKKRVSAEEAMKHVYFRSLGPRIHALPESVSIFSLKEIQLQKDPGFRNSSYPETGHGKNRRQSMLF

[31] = molecular target: Phosphatidylinositol 5-phosphate 4-kinase type-2 beta (Homo sapiens) (UniProt P78356); conditions: Compound concentration 1000.0 nM
[32] = molecular target: Mitogen-activated protein kinase kinase kinase 4 (Homo sapiens) (UniProt Q9Y6R4); conditions: Compound concentration 1000.0 nM
Sequence of Mitogen-activated protein kinase kinase kinase 4 (Homo sapiens) (Q9Y6R4 whole entry): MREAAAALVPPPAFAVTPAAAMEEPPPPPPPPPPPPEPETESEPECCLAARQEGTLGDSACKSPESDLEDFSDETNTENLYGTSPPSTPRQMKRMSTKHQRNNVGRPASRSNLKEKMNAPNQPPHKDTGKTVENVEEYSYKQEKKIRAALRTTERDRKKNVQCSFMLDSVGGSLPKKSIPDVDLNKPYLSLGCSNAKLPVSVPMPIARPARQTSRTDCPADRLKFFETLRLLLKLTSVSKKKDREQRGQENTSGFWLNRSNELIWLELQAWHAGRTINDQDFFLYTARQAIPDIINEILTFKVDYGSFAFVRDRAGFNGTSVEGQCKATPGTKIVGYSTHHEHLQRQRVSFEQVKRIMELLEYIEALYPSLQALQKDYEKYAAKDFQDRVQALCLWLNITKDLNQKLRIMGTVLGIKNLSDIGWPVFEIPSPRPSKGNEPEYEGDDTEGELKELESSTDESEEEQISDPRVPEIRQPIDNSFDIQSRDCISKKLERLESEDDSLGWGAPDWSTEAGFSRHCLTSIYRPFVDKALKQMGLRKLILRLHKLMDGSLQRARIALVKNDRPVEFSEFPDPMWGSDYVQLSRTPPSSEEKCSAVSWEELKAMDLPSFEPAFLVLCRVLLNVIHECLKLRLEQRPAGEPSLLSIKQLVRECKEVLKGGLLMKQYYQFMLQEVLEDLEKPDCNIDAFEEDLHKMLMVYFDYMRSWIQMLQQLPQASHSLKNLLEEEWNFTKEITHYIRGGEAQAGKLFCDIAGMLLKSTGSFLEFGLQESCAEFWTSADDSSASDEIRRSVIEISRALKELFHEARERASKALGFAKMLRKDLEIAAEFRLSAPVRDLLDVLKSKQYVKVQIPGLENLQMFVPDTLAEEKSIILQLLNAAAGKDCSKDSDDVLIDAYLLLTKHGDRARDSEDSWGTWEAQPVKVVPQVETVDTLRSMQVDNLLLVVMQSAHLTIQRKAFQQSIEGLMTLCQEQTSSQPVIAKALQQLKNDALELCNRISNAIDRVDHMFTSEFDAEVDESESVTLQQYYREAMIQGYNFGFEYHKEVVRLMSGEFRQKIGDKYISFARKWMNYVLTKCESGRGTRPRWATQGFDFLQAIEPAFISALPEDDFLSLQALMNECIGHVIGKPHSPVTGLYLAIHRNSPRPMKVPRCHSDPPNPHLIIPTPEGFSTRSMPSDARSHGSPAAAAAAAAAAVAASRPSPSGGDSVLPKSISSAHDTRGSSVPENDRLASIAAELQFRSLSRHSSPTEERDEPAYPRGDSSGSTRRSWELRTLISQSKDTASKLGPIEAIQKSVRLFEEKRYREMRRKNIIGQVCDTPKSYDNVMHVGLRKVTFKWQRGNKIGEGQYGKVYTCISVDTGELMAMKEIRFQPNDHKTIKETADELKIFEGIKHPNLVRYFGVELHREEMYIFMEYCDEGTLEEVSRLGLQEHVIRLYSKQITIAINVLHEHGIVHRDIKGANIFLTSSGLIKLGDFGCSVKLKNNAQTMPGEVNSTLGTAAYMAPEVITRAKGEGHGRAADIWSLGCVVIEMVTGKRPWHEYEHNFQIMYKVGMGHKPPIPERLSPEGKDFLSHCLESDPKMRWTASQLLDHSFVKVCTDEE

[33] = molecular target: TGF-beta receptor type-2 (Homo sapiens) (UniProt P37173); conditions: Compound concentration 1000.0 nM
[34] = test system: Epidermal growth factor receptor (Homo sapiens), P00533 [G719S]; conditions: Compound concentration 1000.0 nM
[35] = molecular target: Glycogen synthase kinase-3 alpha (Homo sapiens) (UniProt P49840); conditions: Compound concentration 1000.0 nM
[36] = molecular target: Homeodomain-interacting protein kinase 2 (Homo sapiens) (UniProt Q9H2X6); conditions: Compound concentration 1000.0 nM
[37] = test system: Tyrosine-protein kinase ABL1 (Homo sapiens), P00519 [H396P]; conditions: Compound concentration 1000.0 nM
[38] = molecular target: Macrophage-stimulating protein receptor (Homo sapiens) (UniProt Q04912); conditions: Compound concentration 1000.0 nM
[39] = molecular target: Serine/threonine-protein kinase 38-like (Homo sapiens) (UniProt Q9Y2H1); conditions: Compound concentration 1000.0 nM
[40] = molecular target: 5-hydroxytryptamine receptor 2C (Homo sapiens) (UniProt P28335); conditions: Compound concentration 10.0 uM
[41] = molecular target: Serine/threonine-protein kinase PAK 2 (Homo sapiens) (UniProt Q13177); conditions: Compound concentration 1000.0 nM
[42] = molecular target: Mitogen-activated protein kinase 8 (Homo sapiens) (UniProt P45983); conditions: Compound concentration 1000.0 nM
[43] = molecular target: Tyrosine-protein kinase ABL1 (Homo sapiens) (UniProt P00519); conditions: Compound concentration 1000.0 nM
[44] = molecular target: Tyrosine-protein kinase JAK1 (Homo sapiens) (UniProt P23458); conditions: Compound concentration 1000.0 nM

Sequence of Ribosomal protein S6 kinase alpha-1 (Homo sapiens) (Q15418 whole entry): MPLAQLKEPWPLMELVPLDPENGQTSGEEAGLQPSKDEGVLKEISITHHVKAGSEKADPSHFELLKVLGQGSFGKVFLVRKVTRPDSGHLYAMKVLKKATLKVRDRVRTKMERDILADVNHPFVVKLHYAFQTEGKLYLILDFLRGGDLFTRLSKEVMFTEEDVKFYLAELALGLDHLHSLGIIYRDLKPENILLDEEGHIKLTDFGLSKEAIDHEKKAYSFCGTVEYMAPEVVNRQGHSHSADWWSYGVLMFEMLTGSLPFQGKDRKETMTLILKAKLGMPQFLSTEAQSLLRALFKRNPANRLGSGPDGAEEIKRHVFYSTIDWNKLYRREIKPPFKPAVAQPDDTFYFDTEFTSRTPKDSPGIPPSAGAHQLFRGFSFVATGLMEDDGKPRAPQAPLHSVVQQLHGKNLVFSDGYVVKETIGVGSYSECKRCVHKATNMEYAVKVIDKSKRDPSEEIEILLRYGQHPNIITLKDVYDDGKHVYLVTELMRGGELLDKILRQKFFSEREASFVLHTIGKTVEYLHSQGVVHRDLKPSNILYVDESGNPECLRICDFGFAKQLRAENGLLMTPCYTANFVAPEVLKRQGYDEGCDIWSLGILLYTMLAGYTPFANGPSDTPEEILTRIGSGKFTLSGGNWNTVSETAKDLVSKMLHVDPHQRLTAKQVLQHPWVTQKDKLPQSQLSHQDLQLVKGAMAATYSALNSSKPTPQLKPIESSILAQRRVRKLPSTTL

NS(=O)(=O)c1cc(NC(=O)C2(c3ccccc3Cl)CC2)ccc1Oc1cccc(Cl)c1 [BAY-207]
residual activity [1]: 100% | residual activity [2]: 100% | residual activity [3]: 93% | residual activity [4]: 78% | residual activity [5]: 87% | residual activity [6]: 100% | residual activity [7]: 100% | residual activity [8]: 75% | residual activity [9]: 86% | residual activity [10]: 72% | residual activity [11]: 100% | residual activity [12]: 100% | residual activity [13]: 74% | residual activity [14]: 74% | residual activity [15]: 92% | residual activity [16]: 81% | residual activity [17]: 84% | residual activity [18]: 64% | residual activity [19]: 93% | residual activity [20]: 94% | residual activity [21]: 75% | residual activity [22]: 74% | residual activity [23]: 100% | residual activity [24]: 95% | residual activity [25]: 96% | residual activity [26]: 100% | residual activity [27]: 68% | residual activity [28]: 100% | inhibition [29]: 3.19% | residual activity [30]: 88% | residual activity [31]: 62% | residual activity [32]: 94% | residual activity [33]: 64% | residual activity [34]: 98% | residual activity [35]: 90% | residual activity [36]: 88% | residual activity [37]: 81% | residual activity [38]: 99% | residual activity [39]: 81% | inhibition [40]: 19.5% | residual activity [41]: 100% | residual activity [42]: 100% | residual activity [43]: 88% | residual activity [44]: 90%

NS(=O)(=O)c1cc(NC(=O)Cc2ccccc2)ccc1Oc1cccc(Cl)c1 [BAY-1797]
residual activity [1]: 98% | residual activity [2]: 75% | residual activity [3]: 100% | residual activity [4]: 92% | residual activity [5]: 87% | residual activity [6]: 71% | residual activity [7]: 93% | residual activity [8]: 88% | residual activity [9]: 87% | residual activity [10]: 73% | residual activity [11]: 100% | residual activity [12]: 73% | residual activity [13]: 61% | residual activity [14]: 78% | residual activity [15]: 98% | residual activity [16]: 90% | residual activity [17]: 100% | residual activity [18]: 100% | residual activity [19]: 77% | residual activity [20]: 93% | residual activity [21]: 84% | residual activity [22]: 77% | residual activity [23]: 78% | residual activity [24]: 83% | residual activity [25]: 99% | residual activity [26]: 100% | residual activity [27]: 99% | residual activity [28]: 88% | inhibition [29]: 0.73% | residual activity [30]: 88% | residual activity [31]: 89% | residual activity [32]: 100% | residual activity [33]: 87% | residual activity [34]: 74% | residual activity [35]: 93% | residual activity [36]: 62% | residual activity [37]: 97% | residual activity [38]: 97% | residual activity [39]: 100% | inhibition [40]: 55.4% | residual activity [41]: 91% | residual activity [42]: 69% | residual activity [43]: 75% | residual activity [44]: 99%

Source: ChEMBL document CHEMBL4507265 (2021)
